Measurements taken from US10995103B2, “Substituted boric acid compound, pharmaceutical composition comprising same, and application thereof” (Shenzhen TargetRx, Inc., priority 2016, dated 2021).

Legend:
[1] = Metabolic stability evaluation in rat liver microsomes; type: in vitro ADME; conditions: SD, pH 7.4, rat liver microsomes 0.5 mg/mL, compound 1 μM, NADPH, 37° C.; for microsomal CLint at 1 μM: read-out: CLint, experiment in rat liver microsomes; for half-life at 1 μM: read-out: t1/2, experiment in rat liver microsomes
Description: (§1) Experiments in microsomes: Human liver microsomes: 0.5 mg/mL, Xenotech; Rat liver microsomes: 0.5 mg/mL, Xenotech; Coenzyme (NADPH/NADH): 1 mM, Sigma Life Science; Magnesium chloride: 5 mM, 100 mM phosphate buffer (pH 7.4).
(§2) Preparation of stock solution: A certain amount of powder of the example compounds was accurately weighed and dissolved in DMSO to 5 mM respectively.
(§3) Preparation of phosphate buffer (100 mM, pH7.4): A pre-formulated 150 mL potassium dihydrogen phosphate (0.5 M) was mixed with 700 mL of dibasic potassium phosphate (0.5M). The pH of the mixture was adjusted to 7.4 with 0.5 M dibasic potassium phosphate solution. The mixture was diluted 5-fold with ultrapure water before use, and magnesium chloride was added to obtain the phosphate buffer (100 mM) containing 100 mM potassium phosphate, 3.3 mM magnesium chloride, pH 7.4.
(§4) A NADPH regeneration system solution (containing 6.5 mM NADP, 16.5 mM G-6-P, 3 U/mL G-6-P D, 3.3 mM magnesium chloride) was prepared and placed on wet ice before use.
(§5) Preparation of stop solution: acetonitrile solution containing 50 ng/mL propranolol hydrochloride and 200 ng/mL tolbutamide (internal standard). 25057.5 μL of phosphate buffer (pH 7.4) was taken into a 50 mL centrifuge tube, to which 812.5 μL human liver microsomes were added, respectively, and mixed to obtain a liver microsome dilution solution with a protein concentration of 0.625 mg/mL. 25057.5 μL of phosphate buffer (pH 7.4) was taken into a 50 mL centrifuge tube, to which 812.5 μL SD rat liver microsomes were added, respectively, and mixed to obtain a liver microsome dilution solution with a protein concentration of 0.625 mg/mL.
(§6) Incubation of the samples: The stock solution of the respective compounds was respectively diluted to 0.25 mM with an aqueous solution containing 70% acetonitrile, which were used as working solutions, ready for use. 398 μL of the dilution solution of human liver microsomes or rat liver microsomes were added to a 96-well incubation plate (N=2), respectively, and 2 μL of 0.25 mM working solution was added and mixed.
(§7) Metabolic stability assay: 300 μL of pre-chilled stop solution was added to each well of a 96-well deep well plate and placed on ice as the stop plate. The 96 well incubation plate and NADPH regeneration system were placed in a 37° C. water bath box, shaken at 100 rpm and pre-incubated for 5 min. 80 μL of incubation solution was taken out from each well of the incubation plate and added to the stop plate, mixed, and replenished with 20 μL of NADPH regeneration system solution as a 0-min sample. 80 μL of NADPH regeneration system solution was added to each well of the incubation plate to start the reaction and counting was started. […] 100 μL of the reaction solution was taken at 10, 30, and 90 min after reaction, respectively, added to the stop plate, and vortexed for 3 minutes to terminate the reaction. The stop plate was centrifuged for 4 min at 5000× g at 4° C. 100 μL of the supernatant was added to a 96-well plate to which 100 μL of distilled water was previously added, mixed, and analyzed by LC-MS/MS.
(§8) Data analysis: The peak areas of the corresponding compounds and internal standard were detected by LC-MS/MS system, and the ratio of the peak area of the compounds to the internal standard was calculated.
(§9) The metabolic stability in human and rat liver microsomes was evaluated by simultaneously testing and comparing the compounds disclosed herein and the non-deuterated compound. The non-deuterated compound Ixazomib was used as a control in the table.

[2] = Metabolic stability evaluation in human liver microsomes; type: in vitro ADME; conditions: pH 7.4, human liver microsomes 0.5 mg/mL, compound 1 μM, NADPH, 37° C.; for microsomal CLint at 1 μM: read-out: CLint, experiment in human liver microsomes; for half-life at 1 μM: read-out: t1/2, experiment in human liver microsomes
Description: as §1, §2, §3, §4, §5, §6, §7, §8, §9

SMILES | microsomal CLint at 1 μM [1] [µL/min/mg] | half-life at 1 μM [1] [min] | microsomal CLint at 1 μM [2] [µL/min/mg] | half-life at 1 μM [2] [min]
[2H]C([2H])(C(C)C)[C@H](NC(=O)CNC(=O)c1cc(Cl)ccc1Cl)B(O)O [Compound I-3, (R)-(1-(2-(2,5-dichlorobenzamido)acetamido)-2,2-d2-3-methylbutyl)boronic Acid] | – | – | 47.3 | 29.3
[2H]C([2H])(NC(=O)c1cc(Cl)ccc1Cl)C(=O)N[C@@]([2H])(CC(C)C)B(O)O [Compound I-4, (R)-(1-(2-(2,5-dichlorobenzamido)-2,2-d2-acetamido)-1-d-3-methylbutyl)boronic Acid] | 90 | 15.4 | 48.3 | 28.7
[2H]C([2H])(C(C)C)[C@]([2H])(NC(=O)CNC(=O)c1cc(Cl)ccc1Cl)B(O)O [Compound I-5, (R)-(1-(2-(2,5-dichlorobenzamido)acetamido)-1-d-2,2-d2-3-methylbutyl)boronic Acid] | 97.8 | 14.2 | 47.3 | 29.3

Now from value to compound:

microsomal CLint at 1 μM [1] [µL/min/mg] | half-life at 1 μM [1] [min] | microsomal CLint at 1 μM [2] [µL/min/mg] | half-life at 1 μM [2] [min] | SMILES
81.3 | 17.1 | – | – | [2H]C([2H])(NC(=O)c1cc(Cl)ccc1Cl)C(=O)N[C@@H](CC(C)C)B(O)O [Compound I-1, (R)-(1-(2-(2,5-dichlorobenzamido)-2,2-d2-acetamido)-3-methylbutyl)boronic acid]
90.5 | 15.3 | 46.5 | 29.8 | [2H][C@@](CC(C)C)(NC(=O)CNC(=O)c1cc(Cl)ccc1Cl)B(O)O [Compound I-2, (R)-(1-(2-(2,5-dichlorobenzamido)acetamido)-1-d-3-methylbutyl)boronic Acid]
97.3 | 14.3 | 49.4 | 28.1 | CC(C)C[C@H](NC(=O)CNC(=O)c1cc(Cl)ccc1Cl)B(O)O [Ixazomib, reference compound]
